In experiment [1] the target is interaction between PD-1 and PD-L1 (Homo sapiens, UniProt Q9NZQ7). As to the kind of experiment: PD-1/PD-L1 protein-protein interaction assay (ALPHA). It is filed as binding. To be noted: 2 nM His-tagged human PD-L1, 0.6 nM PD-1-Fc, AlphaScreen. On the technique in general: In Alpha technology, singlet oxygen from a donor bead excites a nearby acceptor bead.
A further experiment has as its target T1, PD-1/PD-L1 interaction (Homo sapiens, UniProt Q9NZQ7).
T1 construct: expressed in transfected cells
As to the kind of experiment: PD-1/PD-L1 blockage cell-based bioassay (Jurkat NFAT luciferase / CHO-PDL1 co-culture). Conditions: Jurkat NFAT cells co-cultured with CHO-PDL1 cells, 6 h, luminescence.

What is called IC50 is the midpoint of a concentration-inhibition curve. Lower therefore signals greater potency.

interaction between PD-1 and PD-L1, sequence (Q9NZQ7 19-238 limits assumed): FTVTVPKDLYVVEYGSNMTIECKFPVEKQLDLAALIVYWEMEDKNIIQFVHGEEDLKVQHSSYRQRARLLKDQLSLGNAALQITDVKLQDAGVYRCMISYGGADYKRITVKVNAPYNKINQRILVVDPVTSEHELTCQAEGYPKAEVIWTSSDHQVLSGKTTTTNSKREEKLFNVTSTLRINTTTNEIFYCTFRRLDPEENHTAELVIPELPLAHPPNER
T1 sequence (Q9NZQ7 19-290): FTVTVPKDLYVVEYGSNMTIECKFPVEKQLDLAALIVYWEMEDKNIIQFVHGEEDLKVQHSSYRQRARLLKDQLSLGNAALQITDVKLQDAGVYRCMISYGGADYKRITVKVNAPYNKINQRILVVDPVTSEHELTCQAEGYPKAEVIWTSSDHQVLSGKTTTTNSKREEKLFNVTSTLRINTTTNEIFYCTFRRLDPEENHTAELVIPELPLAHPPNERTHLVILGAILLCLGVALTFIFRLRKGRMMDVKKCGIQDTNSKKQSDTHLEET
Experimental for PD-1/PD-L1 interaction: PD-1/PD-L1 Blockage Cell-Based Bioassay
Jurkat T cells expressing human PD-1 and luciferase gene reporter driven by TCR-mediated NFAT response element (Jurkat NFAT) were co-cultured with CHO-kl cells expressing human PD-L1 and surface-bound TCR activator (CHO-PDL1). […] CHO-PDL1 cells (20,000 cells/well) were seeded overnight. Compounds were added on CHO-PDL1 and incubated for 2 h at 37° C. Jurkat NFAT cells (20,000 cells/well) were diluted in RPMI assay medium (RPMI1640 with 1% FBS) and added into each well. After co-incubation for 6 h at 37° C., luminescence was determined by adding Bio-Glo™ Luciferase reagent (Promega) and measured with a luminescence plate reader. EC50 values were calculated from the four-parameter concentration-response curves.

As to `COc1cc(-n2ncc3c(-c4cccc(-c5ccc(CN[C@H]6C[C@@H](O)C6)c(OC)n5)c4Cl)cccc32)cc(OC)c1CN[C@H](CO)C(=O)O` [Example 126, (4-(4-(2-chloro-3-(5-(((cis-3-hydroxycyclobutyl)amino)methyl)-6-methoxypyridin-2-yl)phenyl)-1H-indazol-1-yl)-2,6-dimethoxybenzyl)-D-serine], the IC50 in experiment [1] was below 1 nM; at PD-1/PD-L1 interaction, below 200 nM.
For `COc1cc(-n2ncc3c(-c4cccc(-c5ccc(CNC[C@@H](C)O)c(OC)n5)c4Cl)cccc32)cc(OC)c1CNC[C@@H](C)O` [Example 127, (R)-1-(((6-(2-chloro-3-(1-(4-((((R)-2-hydroxypropyl)amino)methyl)-3,5-dimethoxyphenyl)-1H-indazol-4-yl)phenyl)-2-methoxypyridin-3-yl)methyl)amino)propan-2-ol], the IC50 in experiment [1] was below 1 nM; against PD-1/PD-L1 interaction it was below 200 nM.
For the molecule `COc1cc(-n2ncc3c(-c4cccc(-c5ccc(CN6CC7(CNC(=O)C7)C6)c(OC)n5)c4Cl)cccc32)cc(OC)c1CNCCO` [Example 128, 2-((6-(2-chloro-3-(1-(4-(((2-hydroxyethyl)amino)methyl)-3,5-dimethoxyphenyl)-1H-indazol-4-yl)phenyl)-2-methoxypyridin-3-yl)methyl)-2,6-diazaspiro[3.4]octan-7-one], the IC50 in experiment [1] is below 1 nM; against PD-1/PD-L1 interaction, below 200 nM.
For the molecule `COc1cc(-n2ncc3c(-c4cccc(-c5ccc(CNCCO)c(OC)n5)c4Cl)cccc32)cc(OC)c1CNCCO` [Example 129, 2-(((6-(2-chloro-3-(1-(4-(((2-hydroxyethyl)amino)methyl)-3,5-dimethoxyphenyl)-1H-indazol-4-yl)phenyl)-2-methoxypyridin-3-yl)methyl)amino)ethanol], the values for the IC50 (in experiment [1]; at PD-1/PD-L1 interaction) were below 1 nM and below 200 nM, respectively.
Turning to `COc1cc(-n2ncc3c(-c4cccc(-c5ccc(CN6CC[C@@H](C(=O)O)C6)c(OC)n5)c4Cl)cccc32)cc(OC)c1CN1CC2(CNC(=O)C2)C1` [Example 130, (R)-1-((6-(2-chloro-3-(1-(3,5-dimethoxy-4-((7-oxo-2,6-diazaspiro[3.4]octan-2-yl)methyl)phenyl)-1H-indazol-4-yl)phenyl)-2-methoxypyridin-3-yl)methyl)pyrrolidine-3-carboxylic acid], the IC50 was below 1 nM in experiment [1] and below 200 nM against PD-1/PD-L1 interaction.
As for `COc1cc(-n2ncc3c(-c4cccc(-c5ccc(CN[C@H]6C[C@@H](O)C6)c(OC)n5)c4Cl)cccc32)cc(OC)c1CNCC1(C(N)=O)CC1` [Example 131, 1-(((4-(4-(2-chloro-3-(5-(((cis-3-hydroxycyclobutyl)amino)methyl)-6-methoxypyridin-2-yl)phenyl)-1H-indazol-1-yl)-2,6-dimethoxybenzyl)amino)methyl)cyclopropane-1-carboxamide], the figures for the IC50 (in experiment [1]; on PD-1/PD-L1 interaction) were 1 to 10 nM and 201 to 2000 nM, respectively.
In the same order, the values of `COc1cc(-n2ncc3c(-c4cccc(-c5ccc(CN6CC7(CNC(=O)C7)C6)c(OC)n5)c4Cl)cccc32)ncc1CNCCO` [Example 132, 2-((6-(2-chloro-3-(1-(5-(((2-hydroxyethyl)amino)methyl)-4-methoxypyridin-2-yl)-1H-indazol-4-yl)phenyl)-2-methoxypyridin-3-yl)methyl)-2,6-diazaspiro[3.4]octan-7-one] are below 1 nM and below 200 nM.
Regarding `COc1cc(-n2ncc3c(-c4cccc(-c5ccc(CN6CC7(CNC(=O)C7)C6)c(OC)n5)c4Cl)cccc32)cc(OC)c1CN1CC[C@@H](O)C1` [Example 133, (R)-2-((6-(2-chloro-3-(1-(4-((3-hydroxypyrrolidin-1-yl)methyl)-3,5-dimethoxyphenyl)-1H-indazol-4-yl)phenyl)-2-methoxypyridin-3-yl)methyl)-2,6-diazaspiro[3.4]octan-7-one], the IC50 in experiment [1] is 1 to 10 nM; against PD-1/PD-L1 interaction it was below 200 nM.
In the case of `COC(=O)[C@@H](CO)NCc1c(OC)cc(-n2ncc3c(-c4cccc(-c5ccc(CNC[C@@H]6CCC(=O)N6)c(OC)n5)c4Cl)cccc32)cc1OC` [Example 134, methyl (4-(4-(2-chloro-3-(6-methoxy-5-(((((S)-5-oxopyrrolidin-2-yl)methyl)amino)methyl)pyridin-2-yl)phenyl)-1H-indazol-1-yl)-2,6-dimethoxybenzyl)-D-serinate], the IC50 is below 1 nM in experiment [1] and below 200 nM against PD-1/PD-L1 interaction.
As for `COc1cc(-n2ncc3c(-c4cccc(-c5ccc(CN6CC7(CNC(=O)C7)C6)c(OC)n5)c4F)cccc32)cc(OC)c1CNC[C@@H]1CCC(=O)N1` [Example 135, (S)-2-((6-(2-fluoro-3-(1-(3,5-dimethoxy-4-((((5-oxopyrrolidin-2-yl)methyl)amino)methyl)phenyl)-1H-indazol-4-yl)phenyl)-2-methoxypyridin-3-yl)methyl)-2,6-diazaspiro[3.4]octan-7-one], the IC50 in experiment [1] is below 1 nM; at PD-1/PD-L1 interaction, below 200 nM.
In the same order, the values of `COc1cc(-n2ncc3c(-c4cccc(-c5ccc(CN6CC(C(C)(C)O)C6)c(OC)n5)c4C)cccc32)cc(OC)c1CN1CC(C(C)(C)O)C1` [Example 136, 2-(1-((6-(3-(1-(4-((3-(2-hydroxypropan-2-yl)azetidin-1-yl)methyl)-3,5-dimethoxyphenyl)-1H-indazol-4-yl)-2-methylphenyl)-2-methoxypyridin-3-yl)methyl)azetidin-3-yl)propan-2-ol] are below 1 nM and 201 to 2000 nM.
In the same order, the values of `COc1cc(-n2ncc3c(-c4cccc(-c5ccc(CN6CC7(CNC(=O)C7)C6)c(OC)n5)c4Cl)cccc32)cc(OC)c1CN1CC(C(C)(C)O)C1` [Example 137, 2-((6-(2-chloro-3-(1-(4-((3-(2-hydroxypropan-2-yl)azetidin-1-yl)methyl)-3,5-dimethoxyphenyl)-1H-indazol-4-yl)phenyl)-2-methoxypyridin-3-yl)methyl)-2,6-diazaspiro[3.4]octan-7-one] are below 1 nM and 201 to 2000 nM.
In the same order, the values of `COc1cc(-n2ncc3c(-c4cccc(-c5ccc(CN6CC(C(C)(C)O)C6)c(OC)n5)c4Cl)cccc32)cc(OC)c1CN1CC2(CNC(=O)C2)C1` [Example 138, 2-(4-(4-(2-chloro-3-(5-((3-(2-hydroxypropan-2-yl)azetidin-1-yl)methyl)-6-methoxypyridin-2-yl)phenyl)-1H-indazol-1-yl)-2,6-dimethoxybenzyl)-2,6-diazaspiro[3.4]octan-7-one] are 1 to 10 nM and 201 to 2000 nM.
Turning to `COc1cc(-n2ncc3c(-c4cccc(-c5ccc(CN6CC7(CNC(=O)C7)C6)c(OC)n5)c4Cl)cccc32)cc(OC)c1CN[C@@](C)(CO)C(=O)O` [Example 139, (S)-2-((4-(4-(2-chloro-3-(6-methoxy-5-((7-oxo-2,6-diazaspiro[3.4]octan-2-yl)methyl)pyridin-2-yl)phenyl)-1H-indazol-1-yl)-2,6-dimethoxybenzyl)amino)-3-hydroxy-2-methylpropanoic acid], the values for the IC50 (in experiment [1]; against PD-1/PD-L1 interaction) were below 1 nM and below 200 nM, respectively.
In the same order, the values of `COc1cc(-n2ncc3c(-c4cccc(-c5ccc(CN6CC(C(C)(C)O)C6)c(OC)n5)c4Cl)cccc32)cc(OC)c1CN1CC2(CCC(=O)N2)C1` [Example 140, 2-(4-(4-(2-chloro-3-(5-((3-(2-hydroxypropan-2-yl)azetidin-1-yl)methyl)-6-methoxypyridin-2-yl)phenyl)-1H-indazol-1-yl)-2,6-dimethoxybenzyl)-2,5-diazaspiro[3.4]octan-6-one] are 1 to 10 nM and 201 to 2000 nM.
Take `COc1cc(-n2ncc3c(-c4cccc(-c5ccc(CN6CC7(CNC(=O)C7)C6)c(OC)n5)c4Cl)cccc32)cc(OC)c1CN[C@H](C(=O)O)[C@@H](C)O` [Example 141, (4-(4-(2-chloro-3-(6-methoxy-5-((7-oxo-2,6-diazaspiro[3.4]octan-2-yl)methyl)pyridin-2-yl)phenyl)-1H-indazol-1-yl)-2,6-dimethoxybenzyl)-L-threonine]: the IC50 in experiment [1] was below 1 nM; at PD-1/PD-L1 interaction it was below 200 nM.
In the same order, the values of `COc1cc(-n2ncc3c(-c4cccc(-c5ccc(CN6CC(C(C)(C)O)C6)c(OC)n5)c4Cl)cccc32)ncc1CNCCO` [Example 142, 2-(1-((6-(2-chloro-3-(1-(5-(((2-hydroxyethyl)amino)methyl)-4-methoxypyridin-2-yl)-1H-indazol-4-yl)phenyl)-2-methoxypyridin-3-yl)methyl)azetidin-3-yl)propan-2-ol] are below 1 nM and below 200 nM.
As to `CCOC(=O)[C@@H](NCc1c(OC)cc(-n2ncc3c(-c4cccc(-c5ccc(CN6CC7(CNC(=O)C7)C6)c(OC)n5)c4Cl)cccc32)cc1OC)[C@@H](C)O` [Example 145, Ethyl (4-(4-(2-chloro-3-(6-methoxy-5-((7-oxo-2,6-diazaspiro[3.4]octan-2-yl)methyl)pyridin-2-yl)phenyl)-1H-indazol-1-yl)-2,6-dimethoxybenzyl)-L-threoninate], the IC50 in experiment [1] fell in the range of 1 to 10 nM; against PD-1/PD-L1 interaction it was 201 to 2000 nM.
In the same order, the values of `CCOC(=O)[C@@H](NCc1c(OC)cc(-n2ncc3c(-c4cccc(-c5ccc(CNC[C@@H]6CCC(=O)N6)c(OC)n5)c4Cl)cccc32)cc1OC)[C@@H](C)O` [Example 146, (2S,3R)-ethyl 2-((4-(4-(2-chloro-3-(6-methoxy-5-(((((S)-5-oxopyrrolidin-2-yl)methyl)amino)methyl)pyridin-2-yl)phenyl)-1H-indazol-1-yl)-2,6-dimethoxybenzyl)amino)-3-hydroxybutanoate] are below 1 nM and 201 to 2000 nM.
In the same order, the values of `CCOC(=O)[C@@H](CO)NCc1c(OC)cc(-n2ncc3c(-c4cccc(-c5ccc(CNC[C@@H]6CCC(=O)N6)c(OC)n5)c4Cl)cccc32)cc1OC` [Example 147, Ethyl (2R)-2-[({4-[4-(2-chloro-3-{6-methoxy-5-[({[(2S)-5-oxopyrrolidin-2-yl]methyl)amino)methyl}pyridin-2-yl}phenyl)-1H-indazol-1-yl]-2,6-dimethoxyphenyl}methyl)amino]-3-hydroxypropanoate] are 1 to 10 nM and 201 to 2000 nM.

The values are drawn from patent publication US20240336601A1 (Chulalongkorn University, priority 2020, published 2024).
